Measured values: paper PMC9016025, “Translational imaging of the fibroblast activation protein (FAP) using the new ligand [^68Ga]Ga-OncoFAP-DOTAGA” (European Journal of Nuclear Medicine and Molecular Imaging, 2021)
Read-outs that look alike come from different tables or passages of the source.

Assays:
[1] = system: subcutaneous HT1080 (FAP−) and HT1080-hFAP (FAP+) tumors; assay: Dynamic and late static small animal PET/MRI in tumor-bearing mice; type: in vivo, mouse
Experimental: (§1) Tumor cells (10^6 cells in 50 μL saline) were implanted subcutaneously in the shoulders of NMRI mice with HT1080 wildtype (FAP^−) in one shoulder and with stably transfected human FAP-expressing HT1080 cells (FAP^+) in the contralateral shoulder. Cells were kindly provided by U. Haberkorn, University of Heidelberg. At day 11 after implantation, mice received whole-body PET/MRI (1 T Mediso nanoScan) imaging with list mode PET for 60 min and additional non-contrast-enhanced anatomic, coronal T1-weighted MRI, followed by late static PET/MRI imaging 180 min p.i. Either ^68Ga-OncoFAP or ^68Ga-FAPI-46 (n = 6 each) was injected into the tail vein with a syringe pump at 1000 μL/min in a volume of 100 μL 30 s after the start of PET. At the next day (day 12 after implantation), the same mice were injected with the respective other FAP-tracer and received identical dynamic PET/MRI for 60 min. Sixty minutes p.i., mice were sacrificed under deep narcosis and organs and body fluids were harvested, weighed, and γ-counted. All involved measuring hardware (dose calibrator ISOMED 2010, automatic γ-counter PERKIN ELMER WALAC 2480, Twilite coincidence detector Swisstrace, PET/MRI) were cross-calibrated for ^68Ga. Overall, 3 scans were rejected, because of extravasation (day 11 OncoFAP), inability of i.v. access (day 12 FAPI-46), and insufficient radioactivity (day 12 FAPI-46), respectively. The resulting injected amounts of radioactivity for the remaining 11 ^68Ga-OncoFAP scans and 10 ^68Ga-FAPI-46 scans were 19.2 ± 4.4 MBq and 18.2 ± 4.8 MBq, respectively.
Dynamic PET scans were reconstructed in time frames of 1 × 30 s, 5 × 12 s, 5 × 60 s, 4 × 300 s, 2 × 600 s, and 1 × 810 s. Frames 12 and 18 and the late scan are referred to as (rounded) 10 min, 1 h, and 3 h throughout the manuscript. Volume of interests (VOI) of tumors and representative organs were defined on anatomic MRI. Resulting tumor volumes for ^68Ga-OncoFAP scans for FAP^+ and FAP^− tumors were 0.4 ± 0.36 and 0.22 ± 0.15, and for FAPI-46 scans were 0.34 ± 0.20 and 0.2 ± 0.17 (n.s. different between the two tracers).

[2] = system: patients with breast cancer; set-up: method as in PMID 34636633; conditions: previously published patient sample, cited from earlier work
[3] = system: subcutaneous HT1080 (FAP−) and HT1080-hFAP (FAP+) tumors; assay: Gamma counting biodistribution in tumor-bearing mice; type: in vivo, mouse
Experimental: For tumor-xenograft models, female NMRI nu/nu mice (Janvier, France), 8–9 weeks old, were housed at a constant temperature (22 °C) and relative humidity (40–55%) under a regular light/dark schedule. Food and water were available ad libitum.
as §1, with “Sixty minutes p.i., mice were sacrificed under deep narcosis and organs and body fluids were harvested, weighed, and γ-counted.” left out

CN(CCCN1CCN(C(=O)CN2CCN(CC(=O)[O-])CCN(CC(=O)[O-])CCN(CC(=O)[O-])CC2)CC1)c1ccc2nccc(C(=O)NCC(=O)N3CC(F)(F)C[C@H]3C#N)c2c1.[68Ga+3] [^68Ga-FAPI-46, [^68Ga]Ga-FAPI-46] gave an SUVmean blood ([1]; small animal PET 10 min p.i.) of 0.52 ± 0.09, an SUVmean kidney ([1]; small animal PET 10 min p.i.) of 1.43 ± 0.88 and an SUVmean liver ([1]; small animal PET 10 min p.i.) of 0.57 ± 0.17. The SUVmean muscle ([1]; small animal PET 10 min p.i.) was 0.35 ± 0.07, the SUVmean spleen ([1]; small animal PET 10 min p.i.) was 0.40 ± 0.19 and the “SUVmean tumor FAP+” value ([1]; small animal PET 10 min p.i.) was 0.40 ± 0.07. The “SUVmean tumor FAP-” value ([1]; small animal PET 10 min p.i.) was 0.39 ± 0.07, the SUVmean blood ([1]; small animal PET 1 h p.i.) was 0.19 ± 0.07 and the SUVmean kidney ([1]; small animal PET 1 h p.i.) was 0.54 ± 0.54. It also gave an SUVmean liver ([1]; small animal PET 1 h p.i.) of 0.28 ± 0.16, an SUVmean muscle ([1]; small animal PET 1 h p.i.) of 0.08 ± 0.04 and an SUVmean spleen ([1]; small animal PET 1 h p.i.) of 0.15 ± 0.07. The “SUVmean tumor FAP+” value ([1]; small animal PET 1 h p.i.) was 0.25 ± 0.06, the “SUVmean tumor FAP-” value ([1]; small animal PET 1 h p.i.) was 0.10 ± 0.05 and the SUVmean kidney ([1]; small animal PET 3 h p.i.) was 0.07 ± 0.02. For the same compound, the SUVmean liver ([1]; small animal PET 3 h p.i.) was 0.28 ± 0.19, the SUVmean muscle ([1]; small animal PET 3 h p.i.) was 0.02 ± 0.00 and the SUVmean spleen ([1]; small animal PET 3 h p.i.) was 0.09 ± 0.06. The “SUVmean tumor FAP+” value ([1]; small animal PET 3 h p.i.) was 0.16 ± 0.06, the “SUVmean tumor FAP-” value ([1]; small animal PET 3 h p.i.) was 0.02 ± 0.01 and the “Blood (prone SUVmean)” value [2] was 1.7 ± 0.2. The “Blood (supine SUVmean)” value [2] was 1.3 ± 0.3, the “Bone (supine SUVmean)” value [2] was 0.4 ± 0.1 and the “Breast cancer LN metastasis (supine SUVmax)” value [2] was 12.2 ± 6.2 (n = 13). For the same compound, the “Distant metastases any cancer (supine SUVmax)” value [2] was 12.3 ± 0.2 (n = 2), the “Kidney (supine SUVmean)” value [2] was 1.5 ± 0.4 and the “Liver (supine SUVmean)” value [2] was 0.9 ± 0.3. For the same compound, the “Muscle (supine SUVmean)” value [2] was 1.1 ± 0.2, the “Pancreas (supine SUVmean)” value [2] was 1.1 ± 0.4 and the “Primary breast cancer (prone SUVmax)” value [2] was 14.0 ± 5.7 (n = 17). The “Spleen (supine SUVmean)” value [2] was 1.1 ± 0.8, the “Uterus (supine SUVmax)” value [2] was 11.6 ± 4.5 (n = 18) and the “Uterus (supine SUVmax)” value ([2]; listed as FAPI-46) was 11.6 ± 4.5. For the same compound, the organ-to-blood ratio brain ([3]; gamma counting 1 h p.i.) was 0.06 ± 0.01, the organ-to-blood ratio heart ([3]; gamma counting 1 h p.i.) was 0.36 ± 0.04 and the organ-to-blood ratio kidney ([3]; gamma counting 1 h p.i.) was 11.58 ± 8.84. The organ-to-blood ratio liver ([3]; gamma counting 1 h p.i.) was 0.70 ± 0.23, the organ-to-blood ratio lung ([3]; gamma counting 1 h p.i.) was 1.84 ± 1.04 and the organ-to-blood ratio muscle ([3]; gamma counting 1 h p.i.) was 0.31 ± 0.11. For the same compound, the organ-to-blood ratio spleen ([3]; gamma counting 1 h p.i.) was 0.43 ± 0.06, the “organ-to-blood ratio tumor FAP+ (tumor-to-blood ratio)” value ([3]; gamma counting 1 h p.i.) was 1.98 ± 0.92 and the “organ-to-blood ratio tumor FAP-” value ([3]; gamma counting 1 h p.i.) was 0.55 ± 0.08. The uptake blood ([3]; gamma counting 1 h p.i.) was 0.69 ± 0.15 % ID/g, the uptake heart ([3]; gamma counting 1 h p.i.) was 0.25 ± 0.07 % ID/g and the uptake kidney ([3]; gamma counting 1 h p.i.) was 8.58 ± 7.52 % ID/g. For the same compound, the uptake liver ([3]; gamma counting 1 h p.i.) was 0.46 ± 0.06 % ID/g, the uptake lung ([3]; gamma counting 1 h p.i.) was 1.17 ± 0.43 % ID/g and the uptake muscle ([3]; gamma counting 1 h p.i.) was 0.21 ± 0.07 % ID/g. For the same compound, the uptake plasma ([3]; gamma counting 1 h p.i.) was 1.02 ± 0.30 % ID/g, the uptake spleen ([3]; gamma counting 1 h p.i.) was 0.29 ± 0.05 % ID/g and the “uptake tumor FAP+” value ([3]; gamma counting 1 h p.i.) was 1.28 ± 0.40 % ID/g. For the same compound, the “uptake tumor FAP-” value ([3]; gamma counting 1 h p.i.) was 0.38 ± 0.12 % ID/g, the uptake urine ([3]; gamma counting 1 h p.i.) was 525.55 ± 279.13 % ID/g and the organ-to-blood ratio brain ([3]; gamma counting 3 h p.i.) was 0.15 ± 0.10. The organ-to-blood ratio heart ([3]; gamma counting 3 h p.i.) was 0.51 ± 0.23, the organ-to-blood ratio kidney ([3]; gamma counting 3 h p.i.) was 10.39 ± 5.81 and the organ-to-blood ratio liver ([3]; gamma counting 3 h p.i.) was 1.73 ± 1.28. The organ-to-blood ratio lung ([3]; gamma counting 3 h p.i.) was 2.27 ± 1.98, the organ-to-blood ratio muscle ([3]; gamma counting 3 h p.i.) was 0.38 ± 0.26 and the organ-to-blood ratio spleen ([3]; gamma counting 3 h p.i.) was 0.78 ± 0.47. The “organ-to-blood ratio tumor FAP+ (tumor-to-blood ratio)” value ([3]; gamma counting 3 h p.i.) was 28.62 ± 17.69, the “organ-to-blood ratio tumor FAP-” value ([3]; gamma counting 3 h p.i.) was 1.15 ± 0.67 and the uptake blood ([3]; gamma counting 3 h p.i.) was 0.22 ± 0.31 % ID/g. For the same compound, the uptake brain ([3]; gamma counting 3 h p.i.) was 0.01 ± 0.00 % ID/g, the uptake heart ([3]; gamma counting 3 h p.i.) was 0.05 ± 0.02 % ID/g and the uptake kidney ([3]; gamma counting 3 h p.i.) was 0.98 ± 0.60 % ID/g. The uptake liver ([3]; gamma counting 3 h p.i.) was 0.14 ± 0.03 % ID/g, the uptake lung ([3]; gamma counting 3 h p.i.) was 0.17 ± 0.06 % ID/g and the uptake muscle ([3]; gamma counting 3 h p.i.) was 0.04 ± 0.02 % ID/g. The uptake plasma ([3]; gamma counting 3 h p.i.) was 0.38 ± 0.53 % ID/g, the uptake spleen ([3]; gamma counting 3 h p.i.) was 0.07 ± 0.02 % ID/g and the “uptake tumor FAP+” value ([3]; gamma counting 3 h p.i.) was 2.64 ± 0.60 % ID/g. For the same compound, the “uptake tumor FAP-” value ([3]; gamma counting 3 h p.i.) was 0.11 ± 0.03 % ID/g.
